The source of these data is publication PMC11314410, “Synthesis and Anti-Trypanosoma cruzi Activity of New Pyrazole-Thiadiazole Scaffolds” (Molecules, 2024).

Data set [1] deals with Trypomastigotes of T. cruzi (Dm28c-Luc). The experiment in a line: microbe, parasite or virus in culture. The class given is cell-based, Trypanosoma cruzi. The conditions noted are these: for IC50 / IC90: 24 h treatment; for IC50: mean ± SD, read-out: Anti-T. cruzi Activity Trypomastigotes IC50; for IC90: read-out: Anti-T. cruzi Activity Trypomastigotes IC90. The method, then: (§1) Genetically modified T. cruzi parasites, of clone Dm28c (TcI) expressing the firefly luciferase enzyme gene (Dm28c-Luc), were kindly provided by Dr. Cristina Henriques. T. cruzi Dm28c-Luc was maintained in a Vero cell cultivated in RPMI 1640 medium supplemented with 10% FBS. At 4-day post-infection (dpi), trypomastigotes, released in the cell culture supernatant, were harvested, followed by sedimentation (4000 rpm/20 min/4 °C) and quantification in a Neubauer chamber. Isolated trypomastigotes were used in the phenotypic screening assays as well as the antiparasitic activity in 3D cardiac microtissues, recovery (washout), and drug combination assays.
Drug screening was performed against clinically relevant forms of T. cruzi (amastigotes and trypomastigotes). Trypomastigotes, Dm28c-Luc (1 × 10^6 parasites/well), were added to 96-well plates and incubated with pyrazole-thiadiazole derivatives or Bz (100–0.41 µM). After 24 h of treatment (37 °C), the viability of the parasites was analyzed by adding a D-Luciferin solution (300 µg/mL) and luminescence was measured in the Glomax microplate reader.

Data set [2] relates to T. cruzi (Dm28c-Luc) in Vero cell cultures. The experiment in a line: Washout (recovery) assay in T. cruzi-infected Vero cell cultures. The format is cell-based, Trypanosoma cruzi. The conditions noted are these: for ALUmean of parasite load in cell monolayer, washout assay: 10 days treatment + 10 days without drug; for Prevention of reactivation of infection after drug withdrawal: washout assay. How it is done:
The culture medium of the untreated and treated infected cultures was replaced every 3 or 4 days by a fresh medium with or without the pyrazole-thiadiazole derivatives. The presence of free viable parasites in the culture supernatant was monitored at each medium change by adding luciferin (300 µg/mL) followed by readout on a Glomax microplate reader. At the endpoint, culture supernatants and cell monolayers were evaluated for viable parasites. Positive and negative controls were performed using Bz (150 µM) and DMSO (≤1%), respectively. A minimum of 3 independent experimental runs were performed with 12 replicates.

The nature of data set [3]: Cardiac toxicity in 3D cardiac spheroids (CellTiter-Glo, 72 h). The conditions noted are these: Swiss webster, mouse, 3D cardiac microtissue (cardiac spheroids), ATP levels, read-out: Toxicity CC50 3D Culture. The format is cell-based, Swiss webster mice. The method, then:
(§2) Three-dimensional (3D) cardiac cells were obtained as previously described. Briefly, isolated cardiac muscle cells (2.5 × 10^4 cells/well) were seeded in 96-well U-bottom plates coated with agarose (1%) to form cell aggregates. Cardiac microtissue (7 days in culture) was employed to determine cardiotoxicity and drug efficacy in more complex systems. All animal-use procedures were approved by the Animal Care and Use Committee of Instituto Oswaldo Cruz (license L017/2022-A2).
(§3) The 2D cardiac cultures (5 × 10^4 cells/well) and 3D cardiac microtissues (2.5 × 10^4 cells/well) were incubated for 72 h at 37 °C with pyrazole-thiadiazole candidates followed by ATP detection by CellTiter-Glo [86]. A minimum of 3 independent assays were performed in duplicate.
(ATP-based viability assays read luminescence as a measure of living cells.)

Data set [4] in a line: Cardiac toxicity in 2D cardiac monolayers (CellTiter-Glo, 72 h). The format is cell-based, Swiss webster mice. The conditions noted are these: Swiss webster, mouse, primary cardiac muscle cell monolayers (2D culture), ATP levels. How it is done:
The primary culture of heart muscle cells was obtained from fetuses of Swiss webster mice. The heart was removed and the ventricles were fragmented and subjected to dissociation with trypsin and collagenase type II (Worthington Biochemical Corporation, Lakewood, USA) dissociation solution. Cell monolayers were employed to evaluate drug-induced cardiotoxicity.
as §3

Data set [5] in a line: Toxicity in mammalian cells (CellTiter Glo, 72 h). The class given is cell-based. The conditions noted are these: African green monkey, Vero cells; 72 h, ATP levels; read-out: Cytotoxicity Vero Cells CC50. How it is done:
(§4) Vero cell cultures grown in RPMI 1640 medium containing 10% fetal bovine serum (FBS) were cultured at 37 °C in a humidified atmosphere of 5% CO2 [82]. The cultures were used for drug screening assays and to obtain culture-derived trypomastigotes of T. cruzi.
(§5) Vero cells (1.5 ×10^4 cells/well), cultivated for 24 h at 37 °C in white 96-well plates with clear bottoms, were used to assess the toxicity of the pyrazole-thiadiazole derivatives (series 1 and 2). After washing, the cells were incubated for 72 h at 37 °C with different drug concentrations (500–1.95 μM). Cell viability was measured by adding 20 μL/well of CellTiter Glo reagent (Promega Corporation, Madison, WI, USA). This cell viability kit generates a luminescent signal proportional to the amount of ATP. The luminescence readout was performed using the Glomax Microplate Reader (Promega Corporation, Madison, WI, USA). Thus, the 50% cytotoxicity concentration (CC50), which reduces the cell viability by 50% (CC50), was calculated with Prism GraphPad software (version 8.2.1).

Data set [6] deals with Vero cells. The experiment in a line: Toxicity in mammalian cells (CellTiter Glo, 72 h). The class given is cell-based. The method, then: as §4, §5
The test system of data set [7] is Intracellular amastigotes of T. cruzi (Dm28c-Luc). The experiment in a line: microbe, parasite or virus in culture. The class given is cell-based, Trypanosoma cruzi. Conditions: for IC50 / IC90: Trypanosoma cruzi; for IC90: read-out: Anti-T. cruzi Activity Intracellular Amastigotes IC90. The method, then:
as §1
The activity of pyrazole-thiadiazole derivatives against intracellular amastigotes was evaluated in 24 h-T. cruzi infected Vero cell cultures (1.5 × 10^4 cells/well) at a 10:1 ratio. The cultures were washed and incubated with serial dilutions of the derivatives or Bz (100–0.41 µM). Drug treatment was carried out for 72 h at 37 °C and the parasite viability was determined by luminescence readout after D-Luciferin substrate addition (300 µg/mL). The reading was performed in the Glomax reader. The cell cultures incubated with the culture medium containing dimethylsulphoxide (DMSO; concentration ≤ 1%) were used as the […]. The concentrations required to inhibit parasite viability by 50% (IC50) and 90% (IC90) were calculated using Prism GraphPad software (version 8.2.1). The selectivity index (SI), which measures the window between cytotoxicity (CC50) and anti-T. cruzi activity (IC50), was calculated as CC50/IC50. A minimum of 3 independent assays in duplicate were performed.

Data set [8] relates to T. cruzi (Dm28c-Luc) intracellular parasites in 3D cardiac spheroids. The data set is described as follows: Antiparasitic activity in T. cruzi-infected 3D cardiac microtissues. The format is cell-based, Trypanosoma cruzi. Conditions: 72 h; for inhibition at 100 µM: Trypanosoma cruzi, read-out: Inhibition of parasite load in 3D cardiac microtissue. How it is done:
as §2
Cardiac spheroids (2.5 × 10^4 cells/well), formed after 7 days of cultivation in a U-bottom plate, were infected for 24 h with trypomastigote forms of T. cruzi (Dm28c-Luc) at a ratio of 20:1 parasite-host cell. After washing, the drugs were added at concentrations of IC90, two times IC90, and 100 µM, respecting the CC20 value of cardiac spheroids as the maximum concentration. Bz was added at 100 µM. Luminescence measurements, which reveal the luciferase activity of the viable parasites, were performed after the addition of D-luciferin substrate (300 µg/mL). The luminescent signal was read in the Glomax reader and the results were represented in arbitrary luminescence units (ALU). The fluorescence microscopy images were also acquired from untreated and drug-treated infected 3D microtissues. Three-dimensional cultures were fixed with 4% paraformaldehyde in PBS and labeled with 4′,6-diamidino-2-phenylindole (DAPI). Images were acquired using a Zeiss Axio Imager M2 fluorescence microscope using Axio vision software (version 4.8).

The subject of data set [9] is T. cruzi in 3D cardiac spheroids. Set-up: method as in PMID 33383023. Conditions: 10 µM; cited from earlier work.
The test system of data set [10] is T. cruzi infection of HeLa spheroids. On the set-up: method as in PMID 36099853. Conditions: 40 µM pretreatment of HeLa spheroids; cited from earlier work.
Setting [11] is: Trypanosoma cruzi, 24 h, Dm28c-Luc.
Where [12] appears, read: Vero, read-out: Intracellular Amastigotes pIC50 (converted).
The mark [13] stands for this setting: Dm28c-Luc in Vero cells, 72 h treatment, mean ± SD, read-out: Anti-T. cruzi Activity Intracellular Amastigotes IC50.
Setting [14] is: Dm28c-Luc in Vero cells, 72 h treatment, mean ± SD.

Structures are written as SMILES. “And” between values parts separate entries of the source, which are not always exact repeats. Identical values can stand only once. Like-named read-outs stand apart in the source and are kept apart here.

Usually IC90 stands for the concentration at which the effect reaches the 90% level. For orientation: inhibition means how much of the control response was suppressed. In general, CC50 refers to the concentration giving 50% cytotoxicity. A word on the melting point: it is the temperature of the solid-liquid transition. `Nc1nnc(-c2cnn(-c3ccc(Cl)cc3Cl)c2)s1` [1c, 5-Amino-2-(1-(2,4-dichlorophenyl)-1H-pyrazol-4-yl)-1,3,4-thiadiazole] gave a melting point of 284 to 285 °C. Also, the “Trypomastigotes IC75” value in [1] (Dm28c-Luc, 24 h) was 54.6 µM and 54.66 µM. The IC50 in data set [1] (Dm28c-Luc) was 21.7 ± 2.94 µM. The IC50 in [1] (setting [11]) amounted to 21.7 µM. For the same compound, the IC90 in data set [1] (Trypanosoma cruzi, Dm28c-Luc) was more than 100 µM. Moreover, the “ALUmean of parasite load in cell monolayer, washout assay” value (shortened to “ALUmean of parasite load”) in data set [2] (150 µM) is on record as 57,103 ± 15,228 ALU. Further, the “ALUmean of parasite load” value in data set [2] (300 µM) is recorded as 66,378 ± 14,991 ALU. Further, in [2] (Trypanosoma cruzi, Vero, 150 µM, 11 dpi, read-out: Inhibition in the release of trypomastigotes), the inhibition at 150 µM was 52%. Moreover, in data set [2] (Trypanosoma cruzi, Vero, 300 µM, 11 dpi, read-out: Inhibition in the release of trypomastigotes), the inhibition at 300 µM was 66%. In data set [2], the “Prevention of reactivation of infection after drug withdrawal” value is “trypanostatic action”. In addition, the CC50 at 72 h in data set [3] is more than 500 µM. Also, the half-maximal cytotoxic concentration (CC50) at 72 h in [4] was more than 500 µM. In addition, the half-maximal cytotoxic concentration (CC50) at 72 h in data set [5] is more than 500 µM. Further, in data set [6], the “CC20 for Vero cell monolayers” value is more than 500 µM. In addition, in data set [7] (setting [12]), the IC50 is 13.5 µM. Further, the IC50 in data set [7] (setting [13]) worked out at 13.5 ± 4.47 µM. For the same compound, in data set [7] (setting [14]), the concentration for an effect of 90% (IC90) was 42.3 ± 3.47 µM. For the same compound, in data set [8] (100 µM), the “ALUmean (luminescence, parasite load) in 3D cardiac microtissue” value (“ALUmean (luminescence, parasite load)” below) is 17,078 ± 2407 ALU. The inhibition at 100 µM in data set [8] (100 µM, vs infected untreated) came out at 57%.
In the case of `Nc1nnc(-c2cnn(-c3ccc([N+](=O)[O-])cc3)c2N)s1` [2k, 5-Amino-2-(5-amino-1-(4-nitrophenyl)-1H-pyrazol-4-yl)-1,3,4-thiadiazole], the melting point fell in the range of 321 to 323 °C. In addition, in [1], the “Trypomastigotes SI (CC50 of Vero cells/IC50 of trypomastigotes)” value was more than 5. Also, the IC50 in [1] (setting [11]) is more than 100 µM. Further, in data set [1] (Trypanosoma cruzi, Dm28c-Luc), the IC90 is more than 100 µM. In addition, in data set [2] (150 µM), the “Activity relative to 1c in cell monolayer, washout assay” value stood at 11.8 times and the “ALUmean of parasite load” value was 4845 ± 2419 ALU. For the same compound, in data set [2] (300 µM), the “Activity relative to 1c in cell monolayer, washout assay” value came to 19.8 times and the “ALUmean of parasite load” value was 3349 ± 1767 ALU. Further, in [2] (300 µM, 14 dpi), the “Reduction of parasite release vs untreated infected group” value was determined as 93%. For the same compound, the “Prevention of reactivation of infection after drug withdrawal” value in [2] is “did not prevent parasite recrudescence”. In addition, in [3], the CC50 at 72 h was more than 500 µM. The CC50 at 72 h in data set [4] came out at 191 ± 21 µM. The CC50 at 72 h in data set [5] was more than 500 µM. Moreover, in [6], the “CC20 for Vero cell monolayers” value was more than 500 µM. The IC50 in data set [7] (setting [12]) was 10.5 µM. In [7] (setting [13]), the IC50 turned out to be 10.4 ± 1.21 µM. For the same compound, the IC90 in [7] (setting [14]) worked out at 23.2 ± 4.23 µM. Besides, in data set [8] (100 µM), the “ALUmean (luminescence, parasite load)” value turned out to be 5366 ± 2348 ALU. In [8] (100 µM, vs infected untreated), the inhibition at 100 µM came to 86%.
As for `O=C(Cn1ccnc1[N+](=O)[O-])NCc1ccccc1` [Bz, benznidazole, reference compound], the “Trypomastigotes SI (CC50 of Vero cells/IC50 of trypomastigotes)” value in data set [1] was more than 38.88. The IC50 is 12.8 ± 2.66 µM in data set [1] (Trypanosoma cruzi, Dm28c-Luc); 3.63 µM in data set [7] (setting [12]); 3.61 ± 1.25 µM in [7] (setting [13]). Further, the IC90 was more than 100 µM in [1] (Trypanosoma cruzi, Dm28c-Luc) and 11.5 ± 4.17 µM in data set [7] (setting [14]). Also, the “ALUmean of parasite load” value in [2] (150 µM) was found to be 3426 ± 1727 ALU. Besides, the inhibition at 150 µM in [2] (Trypanosoma cruzi, Vero, read-out: Inhibition in the release of trypomastigotes) stood at 77%; in data set [2] (Trypanosoma cruzi, Vero, read-out: Inhibition of parasite release) it was 82%. For the same compound, the CC50 at 72 h in [3], in data set [4] and in data set [5] was more than 500 µM each time. The “Reduction of parasite load” value in data set [9] is 92%. Also, the “Intracellular Amastigotes SI (CC50 of Vero cells/IC50 of intracellular amastigotes)” value in data set [7] was more than 158.23. Also, the “ALUmean (luminescence, parasite load)” value in data set [8] (100 µM) turned out to be 3520 ± 2198 ALU. Moreover, the inhibition at 100 µM in [8] was found to be 91%.
As for `Oc1ccc(/C=C/c2cc(O)cc(O)c2)cc1` [resveratrol], in [10], the “Reduction of T. cruzi infection level” value is listed as 50%.
